{"source": "patent US9018226B2", "about": "“Antipsychotic agents and standardized antipsychotic fractions from Rauwolfia tetraphylla and process of their isolation” (Council of Scientific & Industrial Research, priority 2009, dated 2015)", "key": {"[1]": {"tested_on": "amphetamine induced hyperactive mouse model", "assay": "amphetamine induced hyperactivity mouse model", "format": "in vivo, Swiss mice", "conditions": "for in-vivo antipsychotic activity, in words: mouse", "description": "(§1) The above fractions were evaluated for their antipsychotic activity. In order to assess the antipsychotic potential of MeOH extract, its various fractions, alkaloids isolated and their derivatives from Rauwolfia tetraphylla leaf, amphetamine induced hyper activity mouse model was used following the method of Szewczak et al (1987). Adult Swiss mice of either sex (25±2 g body weight) obtained from the Indian Institute of Toxicology Research (IITR), Lucknow, India animal-breeding colony were used throughout the experiment. The animals were housed in plastic polypropylene cages under standard animal house conditions with a 12 hours light/dark cycle and temperature of 25±2° C. The animals had adlibitum access to drinking water and pellet diet (Hindustan Lever Laboratory Animal Feed, Kolkata, India). The Animal Care and Ethics Committee of IITR approved all experimental protocols applied to animals.\nMice were injected with amphetamine (5 mg/kg, i.p.) 60 minutes after oral treatment with respective extract in each group.\nas §1, with “In” for “The above fractions were evaluated for their antipsychotic activity. In”\nThe mice randomly grouped in batches of seven animals per group. The basal motor activity (distance traveled) of each mouse was recorded individually using automated activity monitor (TSE, Germany). After basal activity recording, a group of seven animals were challenged with amphetamine [[…], intra peritoneal (i.p) dissolved in normal saline]. After 30 min. amphetamine injection, motor activity was recorded for individual animal for 5 min.\nThe difference in motor activity as indicated by distance traveled in animals with amphetamine alone treated and animals with samples plus amphetamine challenge was recorded as inhibition in hyperactivity caused by amphetamine and the data presented as percent inhibition in amphetamine induced hyperactivity."}, "[2]": {"tested_on": "alpha-2 adrenoceptors", "conditions": "in vivo; cited from earlier work"}, "[3]": {"tested_on": "alpha-2 adrenoceptor", "conditions": "rats and mice; cited from earlier work"}}}
{"smiles": "CC(N)Cc1ccccc1", "note": "(stereo not shown) [Amphetamine]", "values": [{"measurement": "Distance traveled", "setting": "[1]; amphetamine alone, 5 mg/Kg i.p.", "result": 6064, "unit": "cm"}]}
{"smiles": "COC(=O)[C@H]1[C@H]2C[C@@H]3c4[nH]c5cc(OC)ccc5c4CCN3C[C@H]2C[C@@H](OC(=O)c2cc(OC)c(OC)c(OC)c2)[C@@H]1OC", "note": "[Reserpine]", "values": [{"measurement": "Anti-psychotic activity (% inhibition in amphetamine induced hyperactivity)", "setting": "[1]; dose 5 mg/Kg", "result": 34, "unit": "%"}, {"measurement": "Distance traveled", "setting": "[1]; dose 5 mg/Kg, amphetamine 5 mg/kg i.p. 60 minutes later", "result": 4002, "unit": "cm"}, {"measurement": "Distance traveled", "setting": "[1]; dose […], amphetamine 5 mg/kg i.p. 60 minutes later", "result": 5093, "unit": "cm"}]}
{"smiles": "COC(=O)[C@H]1[C@H]2C[C@H]3c4[nH]c5ccccc5c4CCN3C[C@H]2CC[C@@H]1O", "note": "[Compound K001, 17α-hydroxy-20α-yohimban-16β-carboxylic acid methyl ester]", "values": [{"measurement": "inhibition in amphetamine induced hyperactivity mice model", "setting": "[1]; 6.25 mg/Kg", "result": "> 60", "unit": "%"}, {"measurement": "in-vivo antipsychotic activity, in words", "setting": "[1]", "result": "significant in-vivo antipsychotic activity at lower doses"}, {"measurement": "in-vivo antipsychotic activity, in words", "setting": "[1]; listed as α-yohimbine (K001)", "result": "more active even at lower doses"}, {"measurement": "alpha-2 adrenoceptor selectivity relative to RS 21361", "setting": "[2]", "result": "~2", "unit": "times"}, {"measurement": "alpha-2 adrenoceptor selectivity relative to RX 781094", "setting": "[2]", "result": "about 25 times"}]}
{"smiles": "c1ccc2c(c1)OCC(C1=NCCN1)O2", "note": "(stereo not shown) [RX 781094]", "values": [{"measurement": "effectiveness relative to α-yohimbine in antagonizing clonidine hypotension and sedation", "setting": "[3]", "result": "approximately 3 times"}]}
